Test results from patent US5614213A, “Use of estriol for treatment of climacteric osteoporosis” (priority 1992, dated 1997).
Entries after “also recorded” stand apart in the source; their conditions may differ.

Experiments:
osteoporosis = details: cited from earlier work; for prevention of osteoporosis in the climacteric: hormone replacement
[1] = tested on: arteriosclerotic vascular changes; details: hormone replacement; cited from earlier work
[2] = conjugation with glucuronic acid or sulphate in the liver; cited from earlier work
uterus = details: administered once to ovariectomized rats; cited from earlier work
receptor = details: in combination with "strong" estrogens; cited from earlier work
[3] = tested on: castrated (OVX) Wistar rats; experiment: Hydroxyproline excretion in 24-h urine of ovariectomized rats after estriol application; type: in vivo; details: for Hydroxyproline content in the urine: mean, n = 8
From the text: (§1) Investigation of the osteoporotic action of estriol on ovariectomized rats
(§2) 11 week-old female Wistar rats lose a considerable proportion of their bone substance in two weeks after ovariectomy. It was to be investigated whether this effect is preventable through estriol. For this, this hormone was to be applied such that constant hormone levels are established over the whole test period. […] The assumption that estriol has insufficient activity as a partial estrogen antagonist at the bone was also to be examined as another possibility.
(§3) Female Wistar rats from the experimental animal breeders "Biomodelle GmbH", O-1291 Schonwalde (breed: Wistar) were supplied at ages from nine to ten weeks and kept under conventional conditions at a room temperature of 22° C.[…] and under a light regime (14 h light and 10 h dark) in PVC shells with fitted wire covers.
(§4) The animals received standard formulation R 13 feed and drinking water ad libitum.
(§5) At the age of 11 weeks (body weight approximately 220 g) the animals were used in the experiment.
(§6) Subcutaneous application osmotic pumps. Model: Alzet 2002, capacity of the reservoir 200 μl. Throughflow 0.5 μl/hour. Solution of the test substance in propylene glycol.
(§7) The duration of the whole experiment was 3 weeks, 1 week before castration and two weeks (15 days) after castration.
In the week prior to castration, characteristic parameters. were determined "as starting values" prior to the estrogen-specific bone degradation through ovariectomy (hydroxyproline content in the 24-h-urine, hydroxyproline content and estriol concentration in the serum).
For the determination of the hydroxyproline content in the urine, the collective urine was obtained over 24 hours. For this, the animals were individually placed once a week in diuresis cages which permitted a sufficiently clean collection of urine, separate from faeces. The hydroxyproline content was then determined in the collective urine of each individual animal.
(§8) Hydroxyproline is released during the decomposition of collagen which also accounts for a considerable proportion of the bone substance.

[4] = tested on: castrated (OVX) Wistar rats; experiment: Hydroxyproline level in serum of ovariectomized rats after estriol application; type: in vivo; details: for Hydroxyproline content in the serum: mean
From the text: as §1, §2, §3, §4, §5, §6, §7
In the week prior to castration, characteristic parameters. were determined "as starting values" prior to the estrogen-specific bone degradation through ovariectomy (hydroxyproline content in the 24-h-urine, hydroxyproline content and estriol concentration in the serum). […]
as §8

femur bones = experiment: Trabecular proportion of the bone volume (femur histology) after ovariectomy; type: in vivo, Wistar rats
From the text: as §1, §2, §3, §4, §5, §6, §7
At the end of the experiment the animals were killed and the femur bones fixed for histological investigations according to standard methods, cut with a hard cut microtome and investigated qualitatively and quantitatively as regards morphological features.
The effect on the proportion of trabecular structures in the surface of bone sections was determined as a parameter of the osteoprotective effect of estriol.

mastocarcinomas = details: mastocarcinoma; induction and promotion phases; cited from earlier work
bones = details: dosage quantities of 12 mg/day oral; cited from earlier work
ovulation in women = details: lower dosages than 5 mg/day; cited from earlier work
[5] = OVX + D1, estriol 0.1 μg/24 hrs, day 7 after castration
[6] = OVX + D1, estriol 0.1 μg/24 hrs, day 12 after castration
[7] = OVX + D1, estriol 0.1 μg/24 hrs, day 13 after castration
[8] = OVX + D1, estriol 0.1 μg/24 hrs, day 14 after castration
[9] = OVX + D1, estriol 0.1 μg/24 hrs, day 15 after castration
[10] = OVX + D2, estriol 1.0 μg/24 hrs, day 7 after castration
[11] = OVX + D2, estriol 1.0 μg/24 hrs, day 12 after castration
[12] = OVX + D2, estriol 1.0 μg/24 hrs, day 13 after castration
[13] = OVX + D2, estriol 1.0 μg/24 hrs, day 14 after castration
[14] = OVX + D2, estriol 1.0 μg/24 hrs, day 15 after castration
[15] = OVX + D3, estriol 10.0 μg/24 hrs, day 7 after castration
[16] = OVX + D3, estriol 10.0 μg/24 hrs, day 12 after castration
[17] = OVX + D3, estriol 10.0 μg/24 hrs, day 13 after castration
[18] = OVX + D3, estriol 10.0 μg/24 hrs, day 14 after castration
[19] = OVX + D3, estriol 10.0 μg/24 hrs, day 15 after castration
[20] = OVX + D4, estriol 50.0 μg/24 hrs, day 7 after castration
[21] = OVX + D4, estriol 50.0 μg/24 hrs, day 15 after castration

SMILES: C[C@]12CC[C@@H]3c4ccc(O)cc4CC[C@H]3[C@@H]1CCC2=O [estrone]
- prevention of osteoporosis in the climacteric (osteoporosis): can prevent advancing osteoporosis in the climacteric
- effect on arteriosclerotic vascular changes [1]: can slow the advance of arteriosclerotic vascular changes

SMILES: C[C@]12CC[C@@H]3c4ccc(O)cc4CC[C@H]3[C@@H]1C[C@@H](O)[C@@H]2O [estriol]
- inactivation of estriol [2]: inactivated extremely quickly
- stimulation of uterine weights (uterus): does not significantly stimulate uterine weights
- anti-estrogen action (receptor): proved to have an anti-estrogen action
- effectiveness for osteoporosis prophylaxis (osteoporosis; official statement / text book): ineffectiveness; also recorded: Not effective for osteoporosis prophylaxis
- Hydroxyproline content in the urine ([3]; OVX + D1, estriol 0.1 μg/24 hrs, day 0 after castration (starting value)): 1,46 μmol/1 d
- relative change of hydroxyproline content in the urine [3, 5]: 56,95%
- Hydroxyproline content in the urine [3, 5]: 2,15 μmol/1 d
- relative change of hydroxyproline content in the urine [3, 6]: 84,62%
- Hydroxyproline content in the urine [3, 6]: 2,41 μmol/1 d
- relative change of hydroxyproline content in the urine [3, 7]: 79,03%
- Hydroxyproline content in the urine [3, 7]: 2,51 μmol/1 d
- relative change of hydroxyproline content in the urine [3, 8]: 59,47%
- Hydroxyproline content in the urine [3, 8]: 2,11 μmol/1 d
- relative change of hydroxyproline content in the urine [3, 9]: 40,95%
- Hydroxyproline content in the urine [3, 9]: 2,00 μmol/1 d
- Hydroxyproline content in the urine ([3]; OVX + D2, estriol 1.0 μg/24 hrs, day 0 after castration (starting value)): 1,63 μmol/1 d
- relative change of hydroxyproline content in the urine [3, 10]: 15,48%
- Hydroxyproline content in the urine [3, 10]: 1,94 μmol/1 d
- relative change of hydroxyproline content in the urine [3, 11]: 74,86%
- Hydroxyproline content in the urine [3, 11]: 2,97 μmol/1 d
- relative change of hydroxyproline content in the urine [3, 12]: 42,71%
- Hydroxyproline content in the urine [3, 12]: 2,40 μmol/1 d
- relative change of hydroxyproline content in the urine [3, 13]: 37,83%
- Hydroxyproline content in the urine [3, 13]: 2,31 μmol/1 d
- relative change of hydroxyproline content in the urine [3, 14]: 10,69%
- Hydroxyproline content in the urine [3, 14]: 1,83 μmol/1 d
- Hydroxyproline content in the urine ([3]; OVX + D3, estriol 10.0 μg/24 hrs, day 0 after castration (starting value)): 1,67 μmol/1 d
- relative change of hydroxyproline content in the urine [3, 15]: 47,88%
- Hydroxyproline content in the urine [3, 15]: 0,88 μmol/1 d
- relative change of hydroxyproline content in the urine [3, 16]: -40,47%
- Hydroxyproline content in the urine [3, 16]: 0,98 μmol/1 d
- relative change of hydroxyproline content in the urine [3, 17]: -36,63%
- Hydroxyproline content in the urine [3, 17]: 1,04 μmol/1 d
- relative change of hydroxyproline content in the urine [3, 18]: -48,91%
- Hydroxyproline content in the urine [3, 18]: 0,94 μmol/1 d
- relative change of hydroxyproline content in the urine [3, 19]: -28,45%
- Hydroxyproline content in the urine [3, 19]: 1,16 μmol/1 d
- relative change of hydroxyproline content in the urine [3, 20]: -34,52%
- relative change of hydroxyproline content in the urine ([3]; OVX + D4, estriol 50.0 μg/24 hrs, day 12 after castration): -33,26%
- relative change of hydroxyproline content in the urine ([3]; OVX + D4, estriol 50.0 μg/24 hrs, day 13 after castration): -35,04%
- relative change of hydroxyproline content in the urine ([3]; OVX + D4, estriol 50.0 μg/24 hrs, day 14 after castration): -38,21%
- relative change of hydroxyproline content in the urine [3, 21]: -40,43%
- effect on increase of hydroxyproline excretion in the urine after castration ([3]; result in words, Table 3): can also be alleviated through treatment with estriol
- Hydroxyproline content in the serum ([4]; OVX + D1, estriol 0.1 μg/24 hrs, day 0 after castration (starting value), n = 8): 30,55 μmol/1 l
- relative change of hydroxyproline content in the serum [4, 5]: 18,44%
- Hydroxyproline content in the serum ([4]; OVX + D1, estriol 0.1 μg/24 hrs, day 7 after castration, n = 8): 35,31 μmol/1 l
- relative change of hydroxyproline content in the serum [4, 9]: 11,66%
- Hydroxyproline content in the serum ([4]; OVX + D1, estriol 0.1 μg/24 hrs, day 15 after castration, n = 8): 33,36 μmol/1 l
- Hydroxyproline content in the serum ([4]; OVX + D2, estriol 1.0 μg/24 hrs, day 0 after castration (starting value), n = 8): 30,74 μmol/1 l
- relative change of hydroxyproline content in the serum [4, 10]: 8,82%
- Hydroxyproline content in the serum ([4]; OVX + D2, estriol 1.0 μg/24 hrs, day 7 after castration, n = 8): 33,20 μmol/1 l
- relative change of hydroxyproline content in the serum [4, 14]: 0,39%
- Hydroxyproline content in the serum ([4]; OVX + D2, estriol 1.0 μg/24 hrs, day 15 after castration, n = 8): 30,51 μmol/1 l
- Hydroxyproline content in the serum ([4]; OVX + D3, estriol 10.0 μg/24 hrs, day 0 after castration (starting value), n = 8): 28,16 μmol/1 l
- relative change of hydroxyproline content in the serum [4, 15]: -3,56%
- Hydroxyproline content in the serum ([4]; OVX + D3, estriol 10.0 μg/24 hrs, day 7 after castration, n = 8): 26,25 μmol/1 l
- relative change of hydroxyproline content in the serum [4, 19]: -23,81%
- Hydroxyproline content in the serum ([4]; OVX + D3, estriol 10.0 μg/24 hrs, day 15 after castration, n = 8): 20,90 μmol/1 l
- Hydroxyproline content in the serum ([4]; OVX + D4, estriol 50.0 μg/24 hrs, day 0 after castration (starting value), n = 9): 28,26 μmol/1 l
- relative change of hydroxyproline content in the serum [4, 20]: -8,87%
- Hydroxyproline content in the serum ([4]; OVX + D4, estriol 50.0 μg/24 hrs, day 7 after castration, n = 9): 25,45 μmol/1 l
- relative change of hydroxyproline content in the serum [4, 21]: -38,62%
- Hydroxyproline content in the serum ([4]; OVX + D4, estriol 50.0 μg/24 hrs, day 15 after castration, n = 9): 17,33 μmol/1 l
- effect on increase of hydroxyproline in the blood after ovariectomy ([4]; result in words, Table 2): this increase was suppressed through treatment with estriol in dose-dependent manner
- % trabecular proportion of the bone volume (femur bones; OVX + 0.1 microg E3/day): 16.89%
- % trabecular proportion of the bone volume (femur bones; OVX + 1.0 microg E3/day): 17.46%
- % trabecular proportion of the bone volume (femur bones; OVX + 10.0 microg E3/day): 24.79%
- % trabecular proportion of the bone volume (femur bones; OVX + 50.0 microg E3/day): 26.64%
- osteoprotective potential (femur bones; overall evaluation, uniform levels of active ingredient): has an osteoprotective potential
- effect on decomposition of bone mass after castration (femur bones; result in words, Table 4): alleviated by estriol in a dose-dependent manner
- anti-tumour effect (mastocarcinomas): can prevent or suppress the development of mastocarcinomas; also recorded: proven anti-tumour effect
- osteoprotective effectiveness in the bones (bones): developed no osteoprotective effectiveness in the bones

SMILES: C[C@]12CC[C@@H]3c4ccc(O)cc4CC[C@H]3[C@@H]1CC[C@@H]2O [estradiol]
- suppression of ovulation in women (ovulation in women): clearly possible
- prevention of osteoporosis in the climacteric (osteoporosis): can prevent advancing osteoporosis in the climacteric
- effect on arteriosclerotic vascular changes [1]: can slow the advance of arteriosclerotic vascular changes
